# US8957062B2, “Substituted cyclopropyl compounds, compositions containing such compounds and methods of treatment” (Merck Sharp & Dohme Corp., priority 2011, dated 2015)
# Target: T1, human GPR119 (Homo sapiens, UniProt Q8TDV5)
# T1 sequence (Q8TDV5 1-308 limits assumed): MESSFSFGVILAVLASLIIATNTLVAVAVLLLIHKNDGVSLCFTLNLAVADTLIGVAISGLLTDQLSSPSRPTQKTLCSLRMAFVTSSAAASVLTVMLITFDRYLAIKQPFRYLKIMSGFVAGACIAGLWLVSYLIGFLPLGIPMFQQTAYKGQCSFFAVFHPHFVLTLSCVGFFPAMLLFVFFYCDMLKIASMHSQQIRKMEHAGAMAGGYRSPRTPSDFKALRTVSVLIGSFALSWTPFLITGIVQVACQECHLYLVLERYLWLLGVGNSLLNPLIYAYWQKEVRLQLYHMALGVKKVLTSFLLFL
# Test: Measurement of GPR119 signaling (cAMP assay) in cells stably transfected with human GPR119
# Assay type: cell-based
# Details: cAMP stimulation; read-out: GPR119 HumC EC50
# Protocol: Measurement of GPR119 Signaling (Cyclic AMP (cAMP) Assay)
# The adenylate cyclase assay was constructed following the LANCE™ cAMP Kit (Perkin Elmer, AD0264) instructions.
# The reaction was stopped by incubating with the supplied detection buffer containing the europium chelate of the Eu-SA/Biotin-cAMP tracer for 3 hours. The assay was performed in duplicate in a 384 well plate for duplicate plates and fluorescence was measured at 665 nm. Basal activity was determined using a DMSO control and maximum response was defined as cAMP stimulation produced by an internal agonist control. Standard cAMP concentrations were assayed concurrently for conversion of fluorescence signal to cAMP level. The data was analyzed using 4-parameter curve fit in Microsoft Excel.
# Measurement of GPR119 Signaling (cAMP Homogenous Time Resolved Fluorescence (HTRF) Assay)
# Chinese hamster ovary (CHO) cell lines stably transfected with the permissive guanine nucleotide binding protein alpha 15 (Gα15) and murine GPR119 were maintained in DMEM media containing FBS, penicillin-streptomycin, puromycin, and G418 (geneticin). […] Agonist activation of the GPR119 receptor was measured in receptor transfected cells described above, treated with compounds of this invention, using a commercial homogenous time resolved fluorescence (HTRF) kit for measurement of cAMP (CisBio, Bedford, Mass.). The assay was performed in 96-well half-volume plates (murine) or 384-well plates (human) following the manufacturers instructions. Briefly, suspended cells were incubated with a dose titration of test compound at RT for 60 min, lysed, and incubated with HTRF reagents for an additional 60 min. The plate was read using an Envision multilabel reader (Perkin Elmer) adjusted to read time resolved fluorescence and the cAMP concentrations were extrapolated from a cAMP calibration curve. […] The concentration of test compound required to stimulate a half-maximal response (EC50), and efficacy as compared to an internal agonist control, was determined from a sigmoidal 4-parameter curve fit of the resulting plot of normalized activity versus compound concentration.
row,SMILES,EC50 [nM]
1,CN(C)C(=O)Cc1ccc(OCC[C@@H]2C[C@@H]2C2CCN(C(=O)OC3(C)CC3)CC2)cc1F [Example 66],2.4
2,CC1(OC(=O)N2CCC([C@H]3C[C@H]3CCOc3ccc(CC(=O)N4CC(F)(F)C4)c(F)c3)CC2)CC1 [Example 65],0.49
3,CC(C)c1noc(N2CCC([C@H]3C[C@H]3CCOc3cc(F)c(CC(=O)N(C)C)cc3F)CC2)n1 [Example 75],0.6
4,CC1(COC(=O)N2CCC([C@H]3C[C@H]3CCOc3ccc(CC(=O)N4CCC4)c(F)c3)CC2)CC1 [Example 72],3.6
5,CC1(OC(=O)N2CCC([C@H]3C[C@H]3CCOc3ccc(CC(=O)N4CCOCC4)c(F)c3)CC2)CC1 [Example 67],8.5

# Same assay, conditions: stated in the example text; cAMP stimulation, human GPR119; read-out: GPR119 Human EC50
row,SMILES,EC50 [nM]
1,"COCc1noc(N2CCC([C@H]3C[C@H]3CCOc3ccc(CC(=O)N4CCC4)c(F)c3)CC2)n1 [Example 115, 4-[(1R,2S)-2-{2-[4-(2-azetidin-1-yl-2-oxoethyl)-3-fluorophenoxy]ethyl}cyclopropyl]-1-[3-(methoxymethyl)-1,2,4-oxadiazol-5-yl]piperidine]",5.8
2,"CC1(OC(=O)N2CCC([C@H]3C[C@H]3CCOc3ccc(-n4cncn4)cn3)CC2)CC1 [Example 34, 1-methylcyclopropyl 4-[(1R,2S)-2-(2-{[5-(1H-1,2,4-triazol-1-yl)pyridin-2-yl]oxy}ethyl)cyclopropyl]piperidine-1-carboxylate]",0.88
3,"CC(C)c1noc(N2CCC([C@H]3C[C@H]3CCOc3cc(F)c(CC(=O)N4CC(O)C4)c(F)c3)CC2)n1 [Example 108, 1-[(2,6-difluoro-4-{2-[(1S,2R)-2-{1-[3-(1-methylethyl)-1,2,4-oxadiazol-5-yl]piperidin-4-yl}cyclopropyl]ethoxy}phenyl)acetyl]azetidin-3-ol]",0.96
4,"Cc1cc(CC(=O)N2CC(F)C2)cnc1OCC[C@@H]1C[C@@H]1C1CCN(c2nc(C(C)C)no2)CC1 [Example 258, 5-[2-(3-fluoroazetidin-1-yl)-2-oxoethyl]-2-(2-{(1S,2R)-2-[1-(3-isopropyl-1,2,4-oxadiazol-5-yl)piperidin-4-yl]cyclopropyl}ethoxy)-3-methylpyridine]",8
5,CC(C)OC(=O)N1CCC([C@H]2C[C@H]2CCOc2cc(F)c(C(=O)NC3CC3)c(F)c2)CC1 [Example 58],3.5
6,CC1(OC(=O)N2CCC([C@H]3C[C@H]3CCOc3ccc(CC(=O)N4CCCC4)cc3)CC2)CC1 [Example 56],4.7

# Same assay, conditions: table column; cAMP stimulation, human GPR119; read-out: GPR119 Human EC50
row,SMILES,EC50 [nM]
1,CC(C)c1noc(N2CCC([C@H]3C[C@H]3CCOc3ccc(CC(=O)N4CCC4)c(F)c3)CC2)n1 [Example 138],2
2,CC(C)c1noc(N2CCC([C@H]3C[C@H]3CCOc3ccc(S(C)(=O)=O)nc3)CC2)n1 [Example 130],10.6
3,CC(C)c1nc(N2CCC([C@H]3C[C@H]3CCOc3ccc(S(C)(=O)=O)cn3)CC2)no1 [Example 234],3.5
4,CS(=O)(=O)c1ccc(OCC[C@@H]2C[C@@H]2C2CCN(c3noc(C4(C(F)(F)F)CC4)n3)CC2)nc1 [Example 244],2.1
5,CC(C)c1noc(N2CCC([C@H]3C[C@H]3CCOc3ccc(CC(=O)N4CCC4)cc3)CC2)n1 [Example 128],1.8
6,O=C(OC1CCC1)N1CCC([C@H]2C[C@H]2CCOc2ccc(-n3cnnn3)cc2)CC1 [Example 8],1
7,CC(C)CC(=O)N1CCC([C@H]2C[C@H]2CCOc2ccc(-n3cnnn3)cc2)CC1 [Example 79],7.7
8,CC(C)OC(=O)N1CCC([C@H]2C[C@H]2CCOc2ccc(S(C)(=O)=O)c(F)c2)CC1 [Example 40],2.3
9,CC(C)(C)OC(=O)N1CCC([C@H]2C[C@H]2CCOc2ccc(S(C)(=O)=O)cn2)CC1 [Example 17],5.8
10,CCC1(OC(=O)N2CCC([C@H]3C[C@H]3CCOc3ccc(S(C)(=O)=O)cn3)CC2)CC1 [Example 25],2.2
11,CC(C)c1noc(N2CCC([C@H]3C[C@H]3CCOc3ccc(CC(=O)N4CC(O)(C(F)(F)F)C4)c(F)c3)CC2)n1 [Example 186],2.6
12,CC(C)c1noc(N2CCC([C@H]3C[C@H]3CCOc3ccc(CC(=O)NCC4CC4)c(F)c3)CC2)n1 [Example 155],7.5
13,CC(C)c1noc(N2CCC([C@H]3C[C@H]3CCOc3ccc(CC(=O)N4CCCC4)c(F)c3)CC2)n1 [Example 146],1.2
14,Cc1nc(CN(C)C(=O)Cc2ccc(OCC[C@@H]3C[C@@H]3C3CCN(c4nc(C(C)C)no4)CC3)cc2F)cs1 [Example 163],2.3
15,O=C(CC1(c2ccccc2)CCC1)N1CCC([C@H]2C[C@H]2CCOc2ccc(-n3cnnn3)cc2)CC1 [Example 83],15
16,CC(C)(C)OC(=O)N1CCC([C@H]2C[C@H]2CCOc2cc(F)c(C(=O)C3CC3)c(F)c2)CC1 [Example 52],0.2
17,CC1(COC(=O)N2CCC([C@H]3C[C@H]3CCOc3ccc(S(C)(=O)=O)cn3)CC2)CC1 [Example 23],0.6
18,COCc1noc(N2CCC([C@H]3C[C@H]3CCOc3cc(F)c(CC(=O)N4CCOCC4)c(F)c3)CC2)n1 [Example 207],3.1
19,CCCOC(=O)N1CCC([C@H]2C[C@H]2CCOc2ccc(-n3cnnn3)cc2)CC1 [Example 7],0.8

row,SMILES,EC50 [nM]
1,COCc1noc(N2CCC([C@H]3C[C@H]3CCOc3cc(F)c(CC(=O)N(C)C)c(F)c3)CC2)n1 [Example 206],2.5
2,CS(=O)(=O)c1ccc(OCC[C@@H]2C[C@@H]2C2CCN(c3nc(COCC(F)(F)F)no3)CC2)nc1 [Example 217],7.8
3,CS(=O)(=O)c1ccc(OCC[C@@H]2C[C@@H]2C2CCN(C(=O)OC3CCC3)CC2)nc1 [Example 18],0.4
4,Cc1nc(C#N)cc(OCC[C@@H]2C[C@@H]2C2CCN(C(=O)OC(C)C)CC2)n1 [Example 46],1.2
5,CC(C)c1noc(N2CCC([C@H]3C[C@H]3CCOc3ccc(CC(=O)N(C)Cc4cncs4)c(F)c3)CC2)n1 [Example 171],1.5
6,CC1(OC(=O)N2CCC([C@H]3C[C@H]3CCOc3ccc(S(=O)(=O)C4CC4)cc3)CC2)CC1 [Example 37],16
7,CC(C)OC(=O)N1CCC([C@H]2C[C@H]2CCOc2ccc(-n3cnnn3)cc2)CC1 [Example 11],1.5
8,Cc1nc(C#N)cc(OCC[C@@H]2C[C@@H]2C2CCN(c3nc(C(C)C)no3)CC2)n1 [Example 118],0.4
9,CC(C)CC(=O)N1CCC([C@H]2C[C@H]2CCOc2ccc(S(C)(=O)=O)c(F)c2)CC1 [Example 94],19
10,O=C(OCc1ccccc1)N1CCC([C@H]2C[C@H]2CCOc2ccc(-n3cnnn3)cc2)CC1 [Example 12],11.8
11,Cc1nc(C#N)cc(OCC[C@@H]2C[C@@H]2C2CCN(C(=O)OCC(C)C)CC2)n1 [Example 48],1
12,CCS(=O)(=O)c1ccc(OCC[C@@H]2C[C@@H]2C2CCN(C(=O)OC3(C)CC3)CC2)nc1 [Example 27],0.9
13,CC(C)c1noc(N2CCC([C@H]3C[C@H]3CCOc3ccc(CC(=O)N4CCn5ncnc5C4)c(F)c3)CC2)n1 [Example 195],1.6
14,CC1(OC(=O)N2CCC([C@H]3C[C@H]3CCOc3ccc(S(=O)(=O)C4CC4)c(F)c3)CC2)CC1 [Example 43],1
15,COCCc1noc(N2CCC([C@H]3C[C@H]3CCOc3ccc(-n4cnnn4)cn3)CC2)n1 [Example 232],10.6
16,COCc1noc(N2CCC([C@H]3C[C@H]3CCOc3ccc(S(C)(=O)=O)c(F)c3)CC2)n1 [Example 222],0.9
17,COC(C)c1noc(N2CCC([C@H]3C[C@H]3CCOc3ncc(-n4cnnn4)cc3C)CC2)n1 (some centres unmarked) [Example 227],0.9
18,CC(C)c1noc(N2CCC([C@H]3C[C@H]3CCOc3ccc(CC(=O)N4CCC(F)(F)CC4)c(F)c3)CC2)n1 [Example 148],1.7
19,CC(C)c1noc(N2CCC([C@H]3C[C@H]3CCOc3ccc(CC(=O)N4CC(F)C4)cc3)CC2)n1 [Example 129],1.5

# Same assay, conditions: unit inferred; read-out: GPR119 Human EC50
row,SMILES,EC50 [nM]
1,Cc1nnc(-c2ccc(OCC[C@@H]3C[C@@H]3C3CCN(C(=O)OC(C)(C)C)CC3)cc2F)o1 [Example 50],1.8
